In patent US9765035B2 (priority 2013, dated 2017) one finds IC50 data, which are given here for 39 compounds.

Read-outs that look alike come from different tables or passages of the source.

This assay has as its target human PRMT6 (Homo sapiens, UniProt Q96LA8). Put plainly: biochemical. The source says:
General Materials. S-adenosylmethionine (SAM), S-adenosylhomocysteine (SAH), bicine, Tween20, dimethylsulfoxide (DMSO), bovine skin gelatin (BSG), sodium butyrate and Tris(2-carboxyethyl)phosphine hydrochloride solution (TCEP) were purchased from Sigma-Aldrich at the highest level of purity possible. ^3H-SAM was purchase from American Radiolabeled Chemicals with a specific activity of 80 Ci/mmol. 384-well streptavidin Flashplates were purchased from PerkinElmer.
Substrates. Peptide representative of human histone H4 residues 36-50 was synthesized with an N-terminal linker-affinity tag motif and a C-terminal amide cap by 21st Century Biochemicals. The peptide was purified by high-performance liquid chromatography (HPLC) to greater than 95% purity and confirmed by liquid chromatography mass spectrometry (LC-MS). The sequence was Biot-Ahx-[…]-amide and contained a monomethylated lysine at position 44 (SEQ ID NO.:5).
Molecular Biology: Full-length human PRMT6 (NM_018137.2) transcript clone was amplified from an HEK 293 cDNA library, incorporating a flanking 5′ sequence encoding a FLAG tag ([…]) (SEQ ID NO.:6) fused directly to Ser 2 of PRMT6 and a 3′ sequence encoding a hexa His sequence (HHHHHH) (SEQ ID NO.: 17) fused directly to Asp 375. The amplified gene was subcloned into pFastBacMam (Viva Biotech).
Protein Expression. Recombinant baculovirus were generated according to Bac-to-Bac kit instructions (Life Technologies). […] Infections were carried out at 37° C. for 48 hours, harvested by centrifugation, and stored at −80° C. for purification.
Protein Purification. […] Column was washed with 20 mM imidazole in the same buffer and Flag-PRMT6-His was eluted with 150 mM imidazole. Pooled fractions were dialysed against buffer Ni-A and further purified by anti-flag M2 affinity chromatography. Flag-PRMT6-His was eluted with 200 ug/ml FLAG peptide in the same buffer. Pooled fractions were dialysed in 20 mM Tris, 150 mM NaCl, 10% glycerol and 5 mM β-mercaptoethanol, pH 7.8. The purity of recovered protein was 95%.
General Procedure for PRMT6 Enzyme Assays on Peptide Substrates. The assays were all performed in a buffer consisting of 20 mM Bicine (pH=7.6), 1 mM TCEP, 0.005% BSG, and 0.002% Tween 20, prepared on the day of use. Compounds in 100% DMSO (1 ul) were spotted into a polypropylene 384-well V-bottom plates (Greiner) using a Platemate Plus outfitted with a 384-channel head (Thermo Scientific). DMSO (1 ul) was added to Columns 11, 12, 23, 24, rows A-H for the maximum signal control and 1 ul of SAH, a known product and inhibitor of PRMT6, was added to columns 11, 12, 23, 24, rows I-P for the minimum signal control. A cocktail (40 ul) containing the PRMT6 enzyme was added by Multidrop Combi (Thermo-Fisher). The compounds were allowed to incubate with PRMT6 for 30 min at room temperature, then a cocktail (10 ul) containing SAM and peptide was added to initiate the reaction (final volume=51 ul). The final concentrations of the components were as follows: PRMT6 was 1 nM, ^3H-SAM was 200 nM, non-radiolabeled SAM was 250 nM, peptide was 75 nM, SAH in the minimum signal control wells was 1 mM, and the DMSO concentration was 2%. The assays were stopped by the addition of non-radiolabeled SAM (10 ul) to a final concentration of 400 uM, which dilutes the ^3H-SAM to a level where its incorporation into the peptide substrate is no longer detectable. 50 ul of the reaction in the 384-well polypropylene plate was then transferred to a 384-well Flashplate and the biotinylated peptides were allowed to bind to the streptavidin surface for at least 1 hour before being washed once with 0.1% Tween20 in a Biotek EL×405 plate washer. The plates were then read in a PerkinElmer TopCount plate reader to measure the quantity of ^3H-labeled peptide bound to the Flashplate surface, measured as disintegrations per minute (dpm) or alternatively, referred to as counts per minute (cpm). […]

The mark [1] stands for this setting: biochemical evaluation, peptide substrate, read-out: PRMT6 IC50.
Setting [2] is: single experiment or average of multiple experiments, read-out: PRMT6 biochemical evaluation (numerical).

Sequence of human PRMT6 (Q96LA8 with tags, fused parts or gaps): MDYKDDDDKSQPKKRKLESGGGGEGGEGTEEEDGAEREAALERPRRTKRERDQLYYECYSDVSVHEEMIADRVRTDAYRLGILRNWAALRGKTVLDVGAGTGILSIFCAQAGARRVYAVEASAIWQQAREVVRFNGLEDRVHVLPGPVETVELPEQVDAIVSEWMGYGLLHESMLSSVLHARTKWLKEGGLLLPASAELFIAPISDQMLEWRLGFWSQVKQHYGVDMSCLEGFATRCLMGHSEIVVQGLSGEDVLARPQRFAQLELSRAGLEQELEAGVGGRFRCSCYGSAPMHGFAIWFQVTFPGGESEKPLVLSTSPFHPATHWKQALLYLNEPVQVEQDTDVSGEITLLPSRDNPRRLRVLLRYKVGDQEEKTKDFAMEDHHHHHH

As for `CN(CCN)Cc1n[nH]c2ccc(OCc3ccccc3)cc12` [Compound 1B], the IC50 under setting [1] is less than 100 nM and the IC50 under setting [2] is 9.44 nM.
For `CC(C)COc1ccc2[nH]nc(CN(C)CCN)c2c1` [Compound 2, N1-((5-iso-butoxy-1H-indazol-3-yl)methyl)-N1-methylethane-1,2-diamine], in that order: 101 to 1000 nM and 113 nM.
For `CNCCN(C)Cc1nn(C)c2ccc(OCC(C)C)cc12` [Compound 3, N^1-((5-iso-butoxy-1-methyl-1H-indazol-3-yl)methyl)-N^1,N^2-dimethylethane-1,2-diamine], in that order: 101 to 1000 nM and 514 nM.
As to `CNCCN(C)Cc1n[nH]c2ccc(OCCOC)cc12` [Compound 5, N^1-((5-(2-methoxyethoxy)-1H-indazol-3-yl)methyl)-N^1,N^2-dimethylethane-1,2-diamine], the IC50 runs as follows: under setting [1], less than 100 nM; under setting [2], 84.8 nM.
For `CNCCN(C)Cc1n[nH]c2ccc(OCCCOC)cc12` [Compound 6], in that order: less than 100 nM and 39.3 nM.
On the same counts, the results for `CNCCN(C)Cc1n[nH]c2ccc(OCCc3ccccc3)cc12` [Compound 7] are less than 100 nM and 6.78 nM.
On the same counts, the results for `CNCCN(C)Cc1n[nH]c2ccc(OCCC(C)C)cc12` [Compound 8] are less than 100 nM and 56 nM.
On to `CNCCN(C)Cc1n[nH]c2ccc(OC(C)Cc3ccccc3)cc12` (stereo not drawn) [Compound 9], for which the IC50 was less than 100 nM under setting [1] and 13.9 nM under setting [2].
For `CNCCN(C)Cc1n[nH]c2ccc(Oc3ccccc3)cc12` [Compound 10, N^1,N^2-dimethyl-N^1-((5-phenoxy-1H-indazol-3-yl)methyl)ethane-1,2-diamine], in that order: 101 to 1000 nM and 125 nM.
For `CNCCN(C)Cc1n[nH]c2ccc(OC3CCCC3)cc12` [Compound 11], in that order: less than 100 nM and 9.68 nM.
For the compound `CNCCN(C)Cc1n[nH]c2ccc(OCc3ccccn3)cc12` [Compound 12], the IC50 is less than 100 nM under setting [1] and 44.1 nM under setting [2].
For `CNCCN(C)Cc1n[nH]c2ccc(OCc3ccc(C#N)cc3)cc12` [Compound 13], in that order: less than 100 nM and 4.47 nM.
On the same counts, the results for `CNCCN(C)Cc1n[nH]c2ccc(OCc3cccc(C#N)c3)cc12` [Compound 14] are less than 100 nM and 5.29 nM.
On the same counts, the results for `CNCCN(C)Cc1n[nH]c2ccc(OCc3cc[nH]n3)cc12` [Compound 17] are less than 100 nM and 7.81 nM.
With `CNCCN(C)Cc1n[nH]c2ccc(OC3CCCCC3)cc12` [Compound 18], the IC50 under setting [1] was less than 100 nM and the IC50 under setting [2] was found to be 10.3 nM.
For the compound `CNCCN(C)Cc1n[nH]c2ccc(OCC(C)c3ccccc3)cc12` (stereo not drawn) [Compound 19], the IC50 reads like this: under setting [1], less than 100 nM; under setting [2], 19.3 nM.
For `CNCCN(C)Cc1n[nH]c2ccc(OCc3ccn(C)n3)cc12` [Compound 20], in that order: less than 100 nM and 37.4 nM.
On the same counts, the results for `CNCCN(C)Cc1n[nH]c2cccc(OCc3ccccc3)c12` [Compound 21] are less than 100 nM and 21.5 nM.
On the same counts, the results for `CNCCN(C)Cc1n[nH]c2ccc(Oc3cccc(OC)c3)cc12` [Compound 22] are less than 100 nM and 33.1 nM.
On to `CNCCN(C)Cc1n[nH]c2ccc(OCc3ccc(C(C)=O)cc3)cc12` [Compound 23], for which the IC50 is less than 100 nM under setting [1] and 96.6 nM under setting [2].
On the same counts, the results for `CNCCN(C)Cc1n[nH]c2ccc(Oc3ccccc3OC)cc12` [Compound 24] are 101 to 1000 nM and 80.3 nM.
On the same counts, the results for `CNCCN(C)Cc1n[nH]c2ccc(OC3CCOC3)cc12` (stereo not drawn) [Compound 25, N^1,N^2-dimethyl-N^1-((5-((tetrahydrofuran-3-yl)oxy)-1H-indazol-3-yl)methyl)ethane-1,2-diamine] are less than 100 nM and 5.05 nM.
For `CNCCN(C)Cc1n[nH]c2ccc(Oc3cccc(C)c3)cc12` [Compound 26], the IC50 is, setting by setting: under setting [1], 101 to 1000 nM; under setting [2], 201 nM.
Take `CNCCN(C)Cc1n[nH]c2ccc(Oc3cccc(Cl)c3)cc12` [Compound 27, N^1-((5-(3-chlorophenoxy)-1H-indazol-3-yl)methyl)-N^1,N^2-dimethylethane-1,2-diamine]: the IC50 runs as follows: under setting [1], 101 to 1000 nM; under setting [2], 53.7 nM.
For `CNCCN(C)Cc1n[nH]c2ccc(Oc3cccc(C#N)c3)cc12` [Compound 28], in that order: 101 to 1000 nM and 150 nM.
`CNCCN(C)Cc1n[nH]c2ccc(OC3CCOCC3)cc12` [Compound 29, N^1,N^2-dimethyl-N^1-((5-((tetrahydro-2H-pyran-4-yl)oxy)-1H-indazol-3-yl)methyl)ethane-1,2-diamine]: the IC50 is, setting by setting: under setting [1], 101 to 1000 nM; under setting [2], 178 nM.
On the same counts, the results for `CNCCN(C)Cc1n[nH]c2ccc(Oc3ccccc3Cl)cc12` [Compound 30] are 101 to 1000 nM and 131 nM.
On the same counts, the results for `CNCCN(C)Cc1n[nH]c2cccc(OCCC(C)C)c12` [Compound 31] are 1010 to 3000 nM and 135 nM.
Take `CNCCN(C)Cc1nn(C)c2ccc(OCc3ccc(C#N)cc3)cc12` [Compound 32]: the IC50 by setting is: under setting [1], less than 100 nM; under setting [2], 156 nM.
On the same counts, the results for `CNCCN(C)Cc1n[nH]c2ccc(OCc3ccn(CC(C)C)n3)cc12` [Compound 33] are less than 100 nM and 1110 nM.
On the same counts, the results for `CNCCN(C)Cc1c2cc(OCc3ccc(C#N)cc3)ccc2nn1C(C)C` [Compound 34] are 3010 to 10000 nM and 14.9 nM.
For `CNCCN(C)Cc1n[nH]c2ccc(OC)cc12` [Compound 35], in that order: 3010 to 10000 nM and 35.7 nM.
Take `CNCCN(C)Cc1n[nH]c2ccc(O)cc12` [Compound 36, 3-((methyl(2-(methylamino)ethyl)amino)methyl)-1H-indazol-5-ol]: the IC50 under setting [1] lay in the range of 1010 to 3000 nM and the IC50 under setting [2] is 6670 nM.
Consider `CNCCN(C)Cc1n[nH]c2ccc(Oc3ccc(C#N)cc3)cc12` [Compound 37], for which the IC50 runs as follows: under setting [1], 101 to 1000 nM; under setting [2], 4840 nM.
In the case of `CNCCN(C)Cc1nn(C2CCN(C(C)=O)CC2)c2ccc(OCc3ccc(C#N)cc3)cc12` [Compound 38], the IC50 reads like this: under setting [1], 101 to 1000 nM; under setting [2], 1870 nM.
For `CNCCN(C)Cc1n[nH]c2ccc(Oc3ccc(C(F)(F)F)cc3)cc12` [Compound 39], in that order: 101 to 1000 nM and 694 nM.
On to `CNCCN(C)Cc1n[nH]c2cccc(OCCC(O)CO)c12` (stereo not drawn) [Compound 40], for which the IC50 by setting is: under setting [1], 1010 to 3000 nM; under setting [2], 223 nM.
On the same counts, the results for `CNCCN(C)Cc1n[nH]c2cccc(OCCCC(O)CO)c12` (stereo not drawn) [Compound 41, 5-((3-((methyl(2-(methylamino)ethyl)amino)methyl)-1H-indazol-4-yl)oxy)pentane-1,2-diol] are 1010 to 3000 nM and 145 nM.
For `CNCCN(C)Cc1n[nH]c2ccc(C(C)C)cc12` [Compound 42, N^1-((5-isopropyl-1H-indazol-3-yl)methyl)-N^1,N^2-dimethylethane-1,2-diamine], in that order: less than 100 nM and 2340 nM.
